Where a name gives a salt, the structure may show the parent alone. Read-outs that look alike come from different tables or passages of the source.
Test system: PRKACA-PRKAR2A interaction (SmBiT-PRKACA / LgBiT-PRKAR2A), protein kinase A
Set-up: NanoLuc complementation counter-screen in cell extract, PRKACA with PRKAR2A, loss of luminescence, detects NanoLuc interference
Details: counter-screen for NanoLuc interference, 0.5 h, 20 µM, inhibitor

SMILES	Inh (PKA)	Inh (PKA) (Inh (PKA))
O=C1CCCC(=O)C1C(=O)c1ccc(C(F)(F)F)cc1[N+](=O)[O-] [UM0142524:01, Nitisinone]	2.396%	–
CC(=O)Nc1ccc(O)cc1 [UM0142525:01, Acetaminophen]	-0.5181%	–
CC(C)[C@H](N)C(=O)N1CCC[C@H]1B(O)O [UM0142552:01, Talabostat mesylate]	-1.148%	–
CN(CC(=O)N(Cc1ccc(C2CCCCC2)cc1)c1ccc(C(=O)O)cc1)S(=O)(=O)c1c(F)c(F)c(F)c(F)c1F [UM0142580:01, SH-4-54]	8.361%	–
O=S(=O)(CC1CS1)c1ccc(Oc2ccccc2)cc1 (centres unmarked) [UM0142583:01, SB-3CT]	17.13%	–
N=C1NC(=O)/C(=C/c2ccc(O)cc2)S1 [UM0142634:01, Mirin]	13.24%	–
CC(=O)O/N=C1/C(c2c(O)[nH]c3cc(Br)ccc23)=Nc2ccccc21 [UM0142638:01, BIO-acetoxime]	40.08%	–
O=S(=O)(N=Cc1c(O)ccc2ccccc12)c1cccs1 [UM0142640:01, STF 083010]	10.66%	–
N[C@@H](CCNCc1ccc(Cl)cc1)C(=O)N1CCCCC1 [UM0142648:01, UAMC 00039 dihydrochloride]	-0.6597%	–
CN(C)S(=O)(=O)c1ccc2c(c1)/C(=C/c1cc3c([nH]1)CCCC3)C(=O)N2 [UM0142659:01, SU6656]	52.64%	–
FC(F)(F)Oc1ccc(-c2ccc3nnc(C(F)(F)F)n3c2)cc1 [UM0142666:01, GS967]	6.579%	–
O=C(Nc1ccc2[nH]nc(-c3ccncc3)c2c1)[C@@H]1CCN(CC(=O)N2CCN(c3ccc(-c4ncccn4)cc3)CC2)C1 [UM0142677:01, SCH772984 HCl]	–	18.36%
O=C(O)C(=O)c1cn(Cc2ccccc2)c2ccc(-c3ccc(OC(F)(F)F)cc3)cc12 [UM0142688:01, Tiplaxtinin(PAI-039)]	36.69%	–
N#CC(c1ccnc(NCCc2cccnc2)n1)c1nc2ccccc2s1 (centres unmarked) [UM0142696:01, AS601245]	54.87%	–
CNCC(O)c1ccc(O)cc1 (centres unmarked) [UM0142702:01, Synephrine]	1.654%	–
O=C(Cc1ccccc1)Nc1nnc(CCSCCc2nnc(NC(=O)Cc3ccccc3)s2)s1 [UM0142712:01, BPTES]	8.754%	–
O=C(NCC(=O)N1CCCC1)Nc1ccc2cnccc2c1 [UM0142726:01, SGC707]	9.797%	–
Cc1c(Cl)cccc1S(=O)(=O)Nc1nc(CC(=O)N2CCN(C)CC2)cs1 [UM0142740:01, BVT 2733]	1.989%	–
Cc1cn(CCN2CCN(c3ccccc3-c3cc(C#N)cc(C(=O)NCCCN4CCCC4)c3)CC2)c2ccccc12 [UM0142746:01, LLY507]	10.14%	–
Nc1nccc2c1ncn2[C@@H]1O[C@H](CO)[C@@H](O)[C@H]1O [UM0142748:01, 3-Deazaadenosine]	-15.82%	–
Nc1ncc(-c2ccnc(Nc3ccncc3)n2)c(CC2CC2)n1 [UM0142752:01, PIK-III]	17.17%	–
CN1CCc2cc(Nc3ncc(C4CC4)c(NCCCNC(=O)C4CCC4)n3)ccc2C1 [UM0142756:01, MRT68921]	22%	–
O=C(Nc1cnn2ccc(N3CCC[C@@H]3c3cc(F)ccc3F)nc12)N1CC[C@H](O)C1 [UM0142757:01, LOXO-101]	0.6062%	–
N=C(N)NN [UM0142771:01, Aminoguanidine hydrochloride]	0.824%	–
CC(C)SC(=N)N [UM0142772:01, S-Isopropylisothiourea hydrobromide]	0.4324%	–
CS(=O)(=O)Nc1ccc([N+](=O)[O-])cc1OC1CCCCC1 [UM0142773:01, NS 398]	50.11%	–
CC1=Nc2ccc(Cl)cc2S(=O)(=O)N1 [UM0142775:01, Diazoxide]	-0.314%	–
CC(N)=NCc1cccc(CN)c1 [UM0142778:01, 1400W dihydrochloride]	-1.118%	–

More lines, now with the values ahead:

Inh (PKA)	Inh (PKA) (Inh (PKA))	SMILES
43.25%	–	O=C(O)c1ccc(N2C(=O)/C(=C\c3ccc(-c4ccc([N+](=O)[O-])cc4)o3)C=C2c2ccccc2)cc1 [UM0142546:01, 4E1RCat]
0.7821%	–	O=C(COc1ccc(Cl)cc1)N[C@H]1CC[C@H](NC(=O)COc2ccc(Cl)cc2)CC1 [UM0142547:01, ISRIB (trans-isomer)]
2.476%	–	CCCCN(Cc1ccc(C(=O)NO)cc1)C(=O)Nc1ccccc1 [UM0142549:01, Nexturastat A]
10.94%	–	Cc1ccc(CNc2ncnc3ccc(-c4ccc(CO)o4)cc23)o1 [UM0142550:01, ML167]
23.22%	–	CN1CCN(c2ccc(OC(F)(F)F)c(Nc3ncc4c(n3)-c3c(c(C(N)=O)nn3CCO)CC4)c2)CC1 [UM0142553:01, NMS-1286937]
0.7266%	–	Cc1c(F)cc(C(=O)NC2CC2)cc1-c1ccc(C(=O)NCC(C)(C)C)cn1 [UM0142557:01, Losmapimod]
1.467%	–	Cc1ccc2nc(NCCN)c3ncc(C)n3c2c1 [UM0142559:01, BMS-345541(free base)]
5.75%	–	O=C(NCc1cccc(O)c1)c1cc2cc(F)ccc2[nH]1 [UM0142568:01, KX1-004]
41.79%	–	CN(C)c1cccc(-c2c3c(=O)n(-c4ccccc4Cl)[nH]c3cc(=O)n2C)c1 [UM0142578:01, GKT137831]
3.619%	–	CN(C)CCCNC(=O)c1ccc(-c2cc(O)c3ncccc3c2)cc1 [UM0142607:01, ML324]
10.96%	–	O=C(Nc1cccnc1)c1cc(-c2ccnc(F)c2)ccc1OCc1ccccc1 [UM0142641:01, GSK2578215A]
24.94%	–	Cc1cc(C)c(S(=O)(=O)n2cc(C)cc2C)c(C)c1 [UM0142646:01, HJC 0350]
26.28%	–	Cn1cc(-c2ccc(F)c(C(F)(F)F)c2)nc1C1CCN(c2ncnc3[nH]ncc23)CC1 [UM0142649:01, LY2584702]
3.502%	–	CS(=O)(=O)c1ccc(-c2nnc(/C=C/c3nnc(-c4ccc(C#N)cc4)o3)n2-c2ccccc2Cl)nc1 [UM0142653:01, G007-LK]
4.717%	–	Cc1cc(C)c(CNC(=O)c2cc(-c3ccc(N4CCN(C)CC4)nc3)cc3c2c(C)cn3C(C)C)c(=O)[nH]1 [UM0142656:01, GSK503]
4.603%	–	C=CC(=O)Nc1cc(Nc2nccc(-c3c[nH]c4ccccc34)n2)c(OC)cc1N(C)CCN(C)C [UM0142657:01, AZ5104]
10.71%	–	Nc1nc(NC2CC2)cc(-c2cccc(Cl)c2Cl)n1 [UM0142662:01, TH588]
10.62%	–	Cc1cn(-c2cc(NC(=O)c3ccc(C)c(Nc4nccc(-c5cnccn5)n4)c3)cc(C(F)(F)F)c2)cn1 [UM0142663:01, Radotinib(IY-5511)]
9.555%	–	CNc1cc(-c2cccc(Cl)c2Cl)nc(N)n1 [UM0142665:01, TH287]
20.65%	–	CN1CCN(c2ccc(C(=O)Nc3n[nH]c4ccc(Cc5cc(F)cc(F)c5)cc34)c(NC3CCOCC3)c2)CC1 [UM0142673:01, Entrectinib]

Inh (PKA)	Inh (PKA) (Inh (PKA))	SMILES
4.605%	–	CNC(=O)c1c(C)oc2cc(Oc3ncnc4cc(OC)c(OC)cc34)ccc12 [UM0142676:01, Fruquintinib(HMPL-013)]
7.912%	–	Cc1ccc2nc(N)[nH]c(=O)c2c1Sc1ccncc1 [UM0142685:01, Nolatrexed (AG-337)]
17.86%	–	CC#CC(=O)Nc1ccc2ncnc(Nc3cccc(Br)c3)c2c1 [UM0142687:01, CL-387785 (EKI-785)]
5.106%	–	Nc1ccc(/C=C/C(=O)NCc2cc3cc(-c4ccc(C(=O)N5CCC(F)(F)CC5)cc4)cc(-c4ccc(F)cc4)c3o2)cn1 [UM0142694:01, KPT-9274]
–	21.22%	CN1CCN(c2ccc3nc(-c4c(N)c5c(F)cccc5[nH]c4=O)[nH]c3c2)CC1 [UM0142698:01, Dovitinib (TKI258) Lactate]
7.884%	–	COc1cc2ncnc(Nc3cccc(Cl)c3F)c2cc1OC(=O)N1CCN(C)C[C@H]1C [UM0142700:01, AZD3759]
2.166%	–	CC(=O)c1cc2c(o1)C(=O)c1ccccc1C2=O [UM0142718:01, Napabucasin]
15.96%	–	Cc1ccc(Nc2ncc3c(n2)N(C)C(=O)N(c2cc(NC(=O)c4cccc(C(F)(F)F)c4)ccc2C)C3)cn1 [UM0142721:01, GNF-7]
8.033%	–	CC(C)Oc1ccc(-c2nc(-c3cccc4c3CC[C@@H]4NCCO)no2)cc1C#N [UM0142722:01, Ozanimod (RPC1063)]
3.261%	–	O=C(Nc1cc(Cl)cc2c1[nH]c1cnccc12)c1cccnc1 [UM0142732:01, PS-1145]
22.95%	–	COC(=O)c1ccc([C@@H]2c3[nH]c4ccccc4c3C[C@@H](C(=O)OC)N2C(=O)CCl)cc1 [UM0142735:01, RSL3]
35.49%	–	CCOC(=O)COc1ccc(/C=C2\SC(=S)NC2=O)cc1OC [UM0142743:01, IMR-1]
13.99%	–	COc1ccc(/C=C(\C#N)c2cccnc2)cc1OC [UM0142745:01, RG 13022]
7.667%	–	COc1cc(OCc2cccc(-c3ccccc3)c2C)cc(OC)c1CN1CCCC[C@H]1C(=O)O [UM0142755:01, PD-1/PD-L1 inhibitor 1]
-0.1491%	–	CC(C)(C)C(=O)Oc1ccc(S(=O)(=O)Nc2ccccc2C(=O)NCC(=O)O)cc1 [UM0142761:01, Sivelestat (ONO-5046)]
3.32%	–	Cc1ccc2nc(CN(CCN(Cc3nc4ccc(C)cc4[nH]3)Cc3nc4ccc(C)cc4[nH]3)Cc3nc4ccc(C)cc4[nH]3)[nH]c2c1 [UM0142762:01, NSC348884]
0.4975%	–	COc1cc(-c2cn(C)c(=O)c3cnccc23)cc(OC)c1CN(C)C [UM0142765:01, BI-7273]
9.037%	–	CCCOc1ccc(CCc2nc3cc(-c4c(C)noc4C)ccc3n2CCN2CCOCC2)cc1 [UM0142766:01, PF-CBP1]
3.478%	–	CCCOc1ccccc1-c1nc2[nH]nnc2c(=O)[nH]1 [UM0142774:01, Zaprinast]
35.58%	–	COc1ccc(CCCOC(Cn2ccnc2)c2ccc(OC)cc2)cc1 (centres unmarked) [UM0142776:01, SKF 96365 hydrochloride]

Reference: paper PMC9995496, “A screen for MeCP2-TBL1 interaction inhibitors using a luminescence-based assay” (Scientific Reports, 2023)
